Reference: ChEMBL document CHEMBL5223082, “Alkyl-Aryl-Vancomycins: Multimodal Glycopeptides with Weak Dependence on the Bacterial Metabolic State” (J Med Chem, 2021)
The source made the active and inactive calls. The rule behind the calls is not given here.

Key:
[1] = test system: Cell membrane; assay: Induction of cytoplasmic membrane depolarization in Methicillin-resistant Staphylococcus aureus ATCC 33591 assessed as increase in fluorescence intensity at 10 uM measured for 35 to 40 mins by DiSC3(5) dye based fluorescence analysis; type: subcellular; details: time 35-40 min
[2] = Renal toxicity in mouse assessed as plasma creatinine level at 12 mg/kg, ip measured after 48 hrs; type: organism-based; details: in vivo
[3] = test system: Enterococcus; assay: Bactericidal activity against Vancomycin-resistant Enterococci assessed as log reduction in bacterial colonies at 4XMIC incubated for 6 hrs in broth solution followed by culturing for 24 hrs on agar plate by spot plating method; type: functional; details: time 30 hrs
[4] = Toxicity in BALB/c mouse assessed as adverse effects at 55.5 mg/kg, iv measured for 4 hrs; type: organism-based; details: in vivo
[5] = test system: Staphylococcus aureus; assay: Antibacterial activity against Methicillin-resistant Staphylococcus aureus ATCC 33591 persister cells assessed as log reduction in bacterial colonies at 4.5 uM incubated for 12 hrs in broth solution followed by incubation on agar plate for 48 hrs by spot plating method; type: functional; details: time 60 hrs
[6] = test system: Staphylococcus aureus; assay: Bactericidal activity against methicillin-resistant Staphylococcus aureus ATCC 33591 assessed as eradication of viable bacterial cells at 4XMIC incubated for 6 hrs in broth solution followed by culturing for 24 hrs on agar plate by spot plating method; type: functional; details: time 30 hrs
[7] = test system: Enterococcus; assay: Antibacterial activity against Vancomycin-resistant Enterococci ATCC 51575 assessed as inhibition of bacterial growth incubated for 18 to 24 hrs by CLSI microbroth dilution method; type: functional; details: time 18-24 hrs
[8] = test system: Staphylococcus aureus; assay: Potency index, ratio of Vancomycin MIC to test compound MIC for antibacterial activity against Vancomycin-resistant Staphylococcus aureus 1; type: functional
[9] = test system: Staphylococcus aureus; assay: Bactericidal activity against methicillin-resistant Staphylococcus aureus ATCC 33591 assessed as log reduction in bacterial colonies incubated for 4 hrs in broth solution followed by culturing for 24 hrs on agar plate by spot plating method; type: functional; details: time 28 hrs
[10] = test system: Staphylococcus aureus; assay: Antibacterial activity against Vancomycin-resistant Staphylococcus aureus 12 assessed as inhibition of bacterial growth incubated for 18 to 24 hrs by CLSI microbroth dilution method; type: functional; details: time 18-24 hrs
[11] = test system: Staphylococcus aureus; assay: Bactericidal activity against methicillin-resistant Staphylococcus aureus ATCC 33591 assessed as log reduction in bacterial colonies at 2XMIC incubated for 24 hrs in broth solution followed by culturing for 24 hrs on agar plate by spot plating method; type: functional; details: time 48 hrs
[12] = test system: Staphylococcus aureus; assay: Bactericidal activity against methicillin-resistant Staphylococcus aureus ATCC 33591 incubated for 24 hrs in broth solution followed by culturing for 24 hrs on agar plate by spot plating method; type: functional; details: time 48 hrs
[13] = test system: Enterococcus; assay: Potency index, ratio of Vancomycin MIC to test compound MIC for antibacterial activity against Vancomycin-resistant Enterococci NR30903; type: functional, NR 30903
[14] = test system: Cell membrane; assay: Induction of Cytoplasmic membrane disruption in Bacillus subtilis 168 assessed as proportion of PI-stained cells at PEC incubated for 10 mins by SYTO9/PI staining based fluorescence microscopy; type: subcellular
[15] = test system: Staphylococcus aureus; assay: Antibacterial activity against Methicillin-resistant Staphylococcus aureus ATCC 33591 infected in BALB/c mouse thigh infection model assessed as log reduction in bacterial load at 12 mg/kg, ip starting at 1 hr post-infection and measured at 24 hrs post-drug treatment; type: functional
[16] = test system: Staphylococcus aureus; assay: Antibacterial activity against Methicillin-resistant Staphylococcus aureus ATCC 33591 assessed as inhibition of bacterial growth incubated for 18 to 24 hrs by CLSI microbroth dilution method; type: functional; details: time 18-24 hrs
[17] = test system: Staphylococcus aureus; assay: Antibacterial activity against Methicillin-resistant Staphylococcus aureus ATCC 33591 assessed as inhibition of bacterial growth incubated for 18 to 24 hrs in presence of 50% human plasma by CLSI microbroth dilution method; type: functional; details: time 18-24 hrs
[18] = test system: Staphylococcus aureus; assay: Bactericidal activity against methicillin-resistant Staphylococcus aureus ATCC 33591 assessed as log reduction in bacterial colonies incubated for 2 hrs in broth solution followed by culturing for 24 hrs on agar plate by spot plating method; type: functional; details: time 26 hrs
[19] = test system: Enterococcus; assay: Bactericidal activity against Vancomycin-resistant Enterococci assessed as log reduction in bacterial colonies at 2XMIC incubated for 24 hrs in broth solution followed by culturing for 24 hrs on agar plate by spot plating method; type: functional; details: time 48 hrs
[20] = Induction of hemolysis in human erythrocytes incubated for 1 hr by microtiter plater reader analysis; type: toxicity, cell-based, Erythrocyte
[21] = test system: Enterococcus; assay: Bactericidal activity against Vancomycin-resistant Enterococci assessed as log reduction in bacterial colonies at 4XMIC incubated for 24 hrs in broth solution followed by culturing for 24 hrs on agar plate by spot plating method; type: functional; details: time 48 hrs
[22] = test system: Cell membrane; assay: Induction of cytoplasmic membrane permeabilization in Bacillus subtilis assessed as increase in fluorescence intensity at 10 uM measured for 30 to 40 mins by Propidium iodide staining based fluorescence analysis; type: subcellular; details: time 30-40 min
[23] = test system: Staphylococcus aureus; assay: Antibacterial activity against Methicillin-resistant Staphylococcus aureus ATCC 33591 assessed as inhibition of bacterial growth preincubated compound with teichoic-acid for 1 hr followed by incubation with bacterial culture for 18 to 24 hrs by CLSI microbroth dilution method; type: functional; details: time 19-25 hrs
[24] = test system: Staphylococcus aureus; assay: Antibacterial activity against stationary phase of Methicillin-resistant Staphylococcus aureus ATCC 33591 assessed as log reduction in bacterial colonies at 9 uM incubated for 24 hrs in broth solution followed by incubation on agar plate for 48 hrs by spot plating method; type: functional; details: time 72 hrs
[25] = test system: Cell membrane; assay: Induction of cytoplasmic membrane depolarization in Bacillus subtilis assessed as increase in fluorescence intensity at 10 uM measured for 35 to 40 mins by DiSC3(5) dye based fluorescence analysis; type: subcellular; details: time 35-40 min
[26] = test system: Bacillus subtilis; assay: Antibacterial activity against Bacillus subtilis 168 assessed as concentration that requires for bacterial growth retardation measured for every 30 mins; type: functional
[27] = test system: Staphylococcus aureus; assay: Antibiofilm activity against Methicillin-resistant Staphylococcus aureus ATCC 33591 assessed as log reduction in bacterial viability within the biofilms at 20 uM incubated for 24 hrs in broth solution followed by culturing on agar plate for 24 hrs by spot plating method; type: functional; details: time 48 hrs
[28] = test system: Staphylococcus aureus; assay: Antibacterial activity against Methicillin-resistant Staphylococcus aureus ATCC 33591 assessed as log reduction in bacterial colonies at 10XMIC incubated for 1 hr in broth solution followed by plating on nutrient agar plate; type: functional
[29] = test system: HEK293; assay: Cytotoxicity against human HEK293 cells at 30 uM incubated for 24 hrs by calceinAM/PI staining based fluorescence microscopy; type: toxicity, cell-based; details: hek293, 24 h
[30] = test system: Staphylococcus aureus; assay: Antibacterial activity against Methicillin-resistant Staphylococcus aureus ATCC 33591 assessed as inhibition of bacterial growth measured after 27 passages; type: functional
[31] = test system: Staphylococcus aureus; assay: Antibacterial activity against stationary phase of Methicillin-resistant Staphylococcus aureus ATCC 33591 assessed as log reduction in bacterial colonies at 4.5 uM incubated for 12 hrs in broth solution followed by incubation on agar plate for 48 hrs by spot plating method; type: functional; details: time 60 hrs
[32] = test system: Staphylococcus aureus; assay: Antibiofilm activity against Methicillin-resistant Staphylococcus aureus ATCC 33591 assessed as bacterial biofilm thickness at 20 uM incubated for 24 hrs by confocal laser scanning microscopy (reference value: 8 micrometer); type: functional
[33] = test system: Cell membrane; assay: Induction of cytoplasmic membrane permeabilization in Methicillin-resistant Staphylococcus aureus ATCC 33591 assessed as increase in fluorescence intensity at 10 uM measured for 30 to 40 mins by Propidium iodide staining based fluorescence analysis; type: subcellular; details: time 30-40 min
[34] = test system: Enterococcus; assay: Potency index, ratio of Vancomycin MIC to test compound MIC for antibacterial activity against Vancomycin-resistant Enterococci NR30909; type: functional, NR 30909

For `CCCCCCCCCCNC(=O)C[N+](C)(C)CCCNC(=O)c1ccc(CN[C@@]2(C)C[C@H](O[C@H]3[C@H](Oc4c5cc6cc4Oc4ccc(cc4Cl)[C@@H](O)[C@@H](NC(=O)[C@@H](CC(C)C)NC)C(=O)N[C@@H](CC(N)=O)C(=O)N[C@H]6C(=O)N[C@H]4C(=O)N[C@H](C(=O)N[C@H](C(=O)O)c6cc(O)cc(O)c6-c6cc4ccc6O)[C@H](O)c4ccc(c(Cl)c4)O5)O[C@H](CO)[C@@H](O)[C@@H]3O)O[C@@H](C)[C@H]2O)cc1`, the Activity [1] was “Active”, the Activity [2] was 0.38 mg/dL and the Activity [3] was 0.5 log10CFU/ml. For the same compound, the Activity [4] was “Non-Toxic”, the Activity [5] was 1.6 log10CFU/ml and the Activity [6] was 100%. The MIC [7] was 3.6 µM, the Ratio [8] was 1384 and the Activity [9] was 3 log10CFU/ml. It also gave an MIC [10] of 0.9 µM, an Activity [11] of 6 log10CFU/ml and an MBC [12] of 0.9 µM. It also gave a Ratio [13] of 1384, an Activity [14] of 5% and an Activity [15] of 2.8 log10CFU/g. The MIC [16] was 0.9 µM, the MIC [17] was 0.9 µM and the Activity [18] was 2 log10CFU/ml. The Activity [19] was 5 log10CFU/ml, the HC50 at 1 h [20] was greater than 250 µM and the Activity [21] was 5 log10CFU/ml. For the same compound, the Activity [22] was “Active”, the MIC [23] was 0.9 µM and the Activity [24] was 2.4 log10CFU/ml. For the same compound, the Activity [25] was “Active”, the EC [26] was 0.06 µM and the Activity [27] was 2.2 log10CFU/ml. The Activity [28] was 0.8 log10CFU/ml, the Activity [29] was “Non-Toxic” and the MIC [30] was 0.9 µM. For the same compound, the Activity [31] was 1.4 log10CFU/ml, the Activity [32] was 3.5 um and the Activity [33] was “Active”. For the same compound, the Ratio [34] was 1384.
